# In patent US20100298141A1, “SUBSTITUTED PYRIDINE N-OXIDE HERBICIDES” (E. I. DU PONT DE NEMOURS AND COMPANY, priority 2007, published 2010):
# Experiments:
# eastern black nightshade = experiment: Test C pre-/postemergence test; type: in vivo, Solanum ptycanthum
# Summary of the method: (§1)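 Seeds were planted and treated preemergence with test chemical in a non-phytotoxic solvent mixture containing surfactant. Postemergence applications of the same formulation went onto plants 2 to 18 cm tall (1- to 4-leaf stage). A dash marks no test result.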
# wheat = experiment: Test C pre-/postemergence test; type: in vivo, Triticum aestivum
# Summary of the method: as §1
# crabgrass = experiment: Test A pre-/postemergence greenhouse test; type: in vivo, Digitaria sanguinalis; conditions: for Plant response rating, Crabgrass, Large: 0 to 100 scale where 0 is no effect and 100 is complete control; for Crabgrass, Large plant response rating: 0 to 100 scale
# Summary of the method: (§2)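 Seeds sown in a loam soil–sand blend got a preemergence directed soil spray of compound in a non-phytotoxic solvent mixture containing surfactant. Postemergence sprays of the same formulation went at the same time onto plants 2–10 cm tall at the one- to two-leaf stage. Injury was scored visually against untreated controls after about ten days in the greenhouse.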
# morningglory = experiment: Test A pre-/postemergence greenhouse test; type: in vivo, Ipomoea spp.; conditions: for Plant response rating, Morningglory: 0 to 100 scale where 0 is no effect and 100 is complete control; for Morningglory plant response rating: 0 to 100 scale
# Summary of the method: as §2
# common ragweed = experiment: Test C pre-/postemergence test; type: in vivo, Ambrosia elation
# Summary of the method: as §1
# umbrella sedge = experiment: Test C flooded paddy test; type: in vivo, Cyperus difformis; conditions: Flood, 250 g ai/ha; scale 0 to 100, 0 no effect, 100 complete control; 13 to 15 days
# Summary of the method: (§3)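 Visual injury ratings against untreated controls, taken 13 to 15 days after compound was added to paddy water standing 3 cm above the soil.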
# redroot pigweed = experiment: Test A pre-/postemergence greenhouse test; type: in vivo, Amaranthus retroflexus; conditions: for Plant response rating, Pigweed: 0 to 100 scale where 0 is no effect and 100 is complete control; for Pigweed plant response rating: 0 to 100 scale
# Summary of the method: as §2
# green foxtail = experiment: Test C pre-/postemergence test; type: in vivo, Setaria viridis
# Summary of the method: as §1
# Italian ryegrass = experiment: Test C pre-/postemergence test; type: in vivo, Lolium multiflorum
# Summary of the method: as §1
# woolly cupgrass = experiment: Test C pre-/postemergence test; type: in vivo, Eriochloa villosa
# Summary of the method: as §1
# Goosegrass = experiment: Test C pre-/postemergence test; type: in vivo, Eleusin indica
# Summary of the method: as §1
# blackgrass = experiment: Test C pre-/postemergence test; type: in vivo, Alopecurus myosuroides
# Summary of the method: as §1
# wild oat = experiment: Test C pre-/postemergence test; type: in vivo, Avena fatua
# Summary of the method: as §1
# [1] = tested on: common (oilseed) sunflower; experiment: Test C pre-/postemergence test; type: in vivo, Helianthus annuus
# Summary of the method: as §1
# yellow nutsedge = experiment: Test C pre-/postemergence test; type: in vivo, Cyperus esculentus
# Summary of the method: as §1
# corn = experiment: Test C pre-/postemergence test; type: in vivo, Zea mays
# Summary of the method: as §1
# duck salad = experiment: Test C flooded paddy test; type: in vivo, Heteranthera limosa; conditions: Flood, scale 0 to 100, 0 no effect, 100 complete control, 13 to 15 days
# Summary of the method: as §3
# [2] = 62 g ai/ha, Preemergence, scale 0 to 100
# [3] = 125 g ai/ha, preemergence, scale 0 (no effect) to 100 (complete control)
# [4] = Preemergence, 31 g ai/ha, scale 0 to 100 (0 no effect, 100 complete control)
# [5] = preemergence, 250 g ai/ha, scale 0 (no effect) to 100 (complete control)
# [6] = Postemergence, 125 g ai/ha, scale 0 to 100, 0 no effect, 100 complete control
# [7] = Postemergence, 250 g ai/ha, scale 0 to 100, 0 no effect, 100 complete control
# [8] = Postemergence, 500 g ai/ha, 0 is no effect, 100 is complete control
# [9] = Preemergence, 125 g ai/ha, 0 no effect, 100 complete control
# [10] = Postemergence, 62 g ai/ha, scale 0 to 100, 0 no effect, 100 complete control
smiles,measurement,setting,value
[O-][n+]1cc(Cl)ccc1[S+]([O-])Cc1c(C(F)(F)F)nn(CC(F)(F)F)c1Cl (stereo not shown) [Compound 47],Nightshade plant response rating,eastern black nightshade; [2],85
same,Nightshade plant response rating,eastern black nightshade; [3],90
same,"Plant response rating, Nightshade",eastern black nightshade; [4],0
same,Nightshade plant response rating,eastern black nightshade; [5],100
same,Wheat plant response rating,wheat; [2],10
same,Wheat plant response rating,wheat; [3],60
same,"Plant response rating (0 to 100), Wheat","wheat; Postemergence, 31 g ai/ha",0
same,"Plant response rating (0 to 100), Wheat","wheat; Postemergence, 62 g ai/ha",0
same,"Plant response rating, Wheat",wheat; [6],10
same,"Plant response rating, Wheat",wheat; [7],50
same,"Plant response rating, Wheat",wheat; [4],0
same,Wheat plant response rating,wheat; [5],85
same,"Plant response rating, Crabgrass, Large","crabgrass; Postemergence, 125 g ai/ha",80
same,"Crabgrass, Large plant response rating",crabgrass; [8],90
same,"Crabgrass, Large plant response rating",crabgrass; [9],80
same,"Plant response rating, Crabgrass, Large","crabgrass; Preemergence, 500 g ai/ha",100
same,"Plant response rating, Morningglory","morningglory; Postemergence, 125 g ai/ha",60
same,Morningglory plant response rating,morningglory; [8],90
same,Morningglory plant response rating,morningglory; [9],60
same,"Plant response rating, Morningglory","morningglory; Preemergence, 500 g ai/ha",80
same,Ragweed plant response rating,common ragweed; [2],5
same,Ragweed plant response rating,common ragweed; [3],5
same,"Plant response rating (0 to 100), Ragweed","common ragweed; Postemergence, 31 g ai/ha",0
same,"Plant response rating (0 to 100), Ragweed","common ragweed; Postemergence, 62 g ai/ha",0
same,"Plant response rating, Ragweed",common ragweed; [6],0
same,"Plant response rating, Ragweed",common ragweed; [7],0
same,"Plant response rating, Ragweed",common ragweed; [4],0
same,Ragweed plant response rating,common ragweed; [5],50
same,"Plant response rating, Sedge, Umbrella",umbrella sedge,100
same,"Plant response rating, Pigweed","redroot pigweed; Postemergence, 125 g ai/ha",60
same,Pigweed plant response rating,redroot pigweed; [8],80
same,Pigweed plant response rating,redroot pigweed; [9],100
same,"Plant response rating, Pigweed","redroot pigweed; Preemergence, 500 g ai/ha",100
same,"Foxtail, Green plant response rating",green foxtail; [2],85
same,"Foxtail, Green plant response rating",green foxtail; [3],90
same,"Plant response rating (0 to 100), Foxtail, Green","green foxtail; Postemergence, 31 g ai/ha",0
same,"Plant response rating, Foxtail, Green",green foxtail; [10],0
same,"Plant response rating, Foxtail, Green",green foxtail; [6],5
same,"Plant response rating, Foxtail, Green",green foxtail; [7],80
same,"Plant response rating, Foxtail, Green",green foxtail; [4],70
same,"Foxtail, Green plant response rating",green foxtail; [5],100
same,"Ryegrass, Italian plant response rating",Italian ryegrass; [2],20
same,"Ryegrass, Italian plant response rating",Italian ryegrass; [3],50
same,"Plant response rating (0 to 100), Ryegrass, Italian","Italian ryegrass; Postemergence, 31 g ai/ha",0
same,"Plant response rating (0 to 100), Ryegrass, Italian","Italian ryegrass; Postemergence, 62 g ai/ha",0
same,"Plant response rating, Ryegrass, Italian",Italian ryegrass; [6],0
same,"Plant response rating, Ryegrass, Italian",Italian ryegrass; [7],40
same,"Plant response rating, Ryegrass, Italian",Italian ryegrass; [4],0
same,"Ryegrass, Italian plant response rating",Italian ryegrass; [5],85
same,"Cupgrass, Woolly plant response rating",woolly cupgrass; [2],100
same,"Cupgrass, Woolly plant response rating",woolly cupgrass; [3],100
same,"Plant response rating (0 to 100), Cupgrass, Woolly","woolly cupgrass; Postemergence, 31 g ai/ha",0
same,"Plant response rating, Cupgrass, Woolly",woolly cupgrass; [10],0
same,"Plant response rating, Cupgrass, Woolly",woolly cupgrass; [6],0
same,"Plant response rating, Cupgrass, Woolly",woolly cupgrass; [7],50
same,"Plant response rating, Cupgrass, Woolly",woolly cupgrass; [4],90
same,"Cupgrass, Woolly plant response rating",woolly cupgrass; [5],100
same,Goosegrass plant response rating,Goosegrass; [2],100
same,Goosegrass plant response rating,Goosegrass; [3],100
same,"Plant response rating (0 to 100), Goosegrass","Goosegrass; Postemergence, 31 g ai/ha",0
same,"Plant response rating, Goosegrass",Goosegrass; [10],0
same,"Plant response rating, Goosegrass",Goosegrass; [6],0
same,"Plant response rating, Goosegrass",Goosegrass; [7],60
same,"Plant response rating, Goosegrass",Goosegrass; [4],98
same,Goosegrass plant response rating,Goosegrass; [5],100
same,Blackgrass plant response rating,blackgrass; [2],50
same,Blackgrass plant response rating,blackgrass; [3],100
same,"Plant response rating (0 to 100), Blackgrass","blackgrass; Postemergence, 31 g ai/ha",0
same,"Plant response rating, Blackgrass",blackgrass; [10],20
same,"Plant response rating, Blackgrass",blackgrass; [6],40
same,"Plant response rating, Blackgrass",blackgrass; [7],70
same,"Plant response rating, Blackgrass",blackgrass; [4],50
same,Blackgrass plant response rating,blackgrass; [5],100
same,"Oat, Wild plant response rating",wild oat; [2],10
same,"Oat, Wild plant response rating",wild oat; [3],90
same,"Plant response rating (0 to 100), Oat, Wild","wild oat; Postemergence, 31 g ai/ha",0
same,"Plant response rating, Oat, Wild",wild oat; [10],0
same,"Plant response rating, Oat, Wild",wild oat; [6],10
same,"Plant response rating, Oat, Wild",wild oat; [7],40
same,"Plant response rating, Oat, Wild",wild oat; [4],10
same,"Oat, Wild plant response rating",wild oat; [5],95
same,Sunflower plant response rating,[1]; [2],0
same,Sunflower plant response rating,[1]; [3],0
same,"Plant response rating, Sunflower",[1]; [4],0
same,Sunflower plant response rating,[1]; [5],0
same,"Nutsedge, Yellow plant response rating",yellow nutsedge; [2],30
same,"Nutsedge, Yellow plant response rating",yellow nutsedge; [3],40
same,"Plant response rating (0 to 100), Nutsedge, Yellow","yellow nutsedge; Postemergence, 31 g ai/ha",0
same,"Plant response rating, Nutsedge, Yellow",yellow nutsedge; [10],0
same,"Plant response rating, Nutsedge, Yellow",yellow nutsedge; [6],0
same,"Plant response rating, Nutsedge, Yellow",yellow nutsedge; [7],60
same,"Plant response rating, Nutsedge, Yellow",yellow nutsedge; [4],0
same,"Nutsedge, Yellow plant response rating",yellow nutsedge; [5],100
same,Corn plant response rating,corn; [2],50
same,Corn plant response rating,corn; [3],98
same,"Plant response rating (0 to 100), Corn","corn; Postemergence, 31 g ai/ha",0
same,"Plant response rating, Corn",corn; [10],0
same,"Plant response rating, Corn",corn; [6],0
same,"Plant response rating, Corn",corn; [7],60
same,"Plant response rating, Corn",corn; [4],45
same,Corn plant response rating,corn; [5],98
same,"Plant response rating, Ducksalad",duck salad; 62 g ai/ha,75
same,"Plant response rating, Ducksalad",duck salad; 250 g ai/ha,90
